Molecular target: T1, P2X7 receptor (Homo sapiens, UniProt Q99572)
T1 construct: endogenous in cells; host or cells: THP-1 cells differentiated with LPS and IFN-γ
T1 sequence (Q99572 1-595): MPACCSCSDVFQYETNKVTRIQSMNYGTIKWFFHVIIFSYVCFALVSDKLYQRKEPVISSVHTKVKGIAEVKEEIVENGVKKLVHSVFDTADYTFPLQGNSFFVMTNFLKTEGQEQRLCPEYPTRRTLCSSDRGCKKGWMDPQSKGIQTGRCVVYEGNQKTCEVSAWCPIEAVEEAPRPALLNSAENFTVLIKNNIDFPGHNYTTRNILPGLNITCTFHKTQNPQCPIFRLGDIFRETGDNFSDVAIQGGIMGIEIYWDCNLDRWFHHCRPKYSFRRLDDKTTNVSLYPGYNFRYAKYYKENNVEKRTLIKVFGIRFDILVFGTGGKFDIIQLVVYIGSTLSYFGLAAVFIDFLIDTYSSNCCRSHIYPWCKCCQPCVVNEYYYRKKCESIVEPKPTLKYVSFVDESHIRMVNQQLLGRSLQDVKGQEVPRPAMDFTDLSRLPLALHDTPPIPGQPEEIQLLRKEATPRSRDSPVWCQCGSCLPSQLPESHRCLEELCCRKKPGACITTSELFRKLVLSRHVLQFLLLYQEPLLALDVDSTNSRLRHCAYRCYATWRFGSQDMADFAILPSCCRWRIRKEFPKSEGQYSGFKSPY
Assay: IL-1β release assay in differentiated THP-1 cells stimulated with BzATP (Example 9)
Assay type: cell-based
Conditions: for inhibition at 0.3 µM: 0.3 μM concentration; for inhibition at 0.3 µM / inhibition at 0.1 µM: read-out: IL-1β % Inhib. @ 0.3 or 0.1 μM; for IC50: four parameter logistic fit, read-out: IL-1β IC50; for inhibition at 0.1 µM: 0.1 μM concentration
Protocol: The cells are then pretreated for 30 minutes with the compound of interest at the appropriate concentration in RPMI media containing 100 IU/mL penicillin, 100 ug/mL streptomycin. […] 30 uL of cell supernatant is then collected and IL-1β levels determined via ELISA (R&D systems Cat. # HSLB50) according to manufacturer's recommendations using the Tecan Safire plate reader. Background adjusted IL-1β levels of drug treated and non-treated cells are used to calculate the percent inhibition.
The compounds set forth in Table 1 were tested for activity in a cellular model as described herein. […] Measurements were made and IC50 values, presented in Table 2, below, were determined by fitting the data to a four parameter logistic equation using GraphPad Prism software (GraphPad Software, Inc). The equation may be expressed by the following formula:
Y=Bottom+(Top-Bottom)/(1+10̂((Log EC50−X)*HillSlope))
Where X is the logarithm of concentration, Y is the response and Y starts at Bottom and goes to Top with a sigmoid shape.

inhibition at 0.3 µM	IC50	inhibition at 0.1 µM	SMILES
> 76%	3.22 nM	–	CC12CC3CC(C)(C1)CC(CC(=O)Nc1cccc4c(=O)n(-c5cccnc5)ccc14)(C3)C2 [ID 701]
> 76%	0.177 nM	–	Cc1ccncc1-n1ccc2c(NC(=O)CC34CC5CC(CC(C5)C3)C4)cccc2c1=O [ID 702]
> 76%	13.2 nM	–	Cc1ccc(-n2ccc3c(NC(=O)CC45CC6CC(CC(C6)C4)C5)cccc3c2=O)c(C)n1 [ID 703]
> 76%	0.322 nM	–	O=C(CC12CC3CC(CC(C3)C1)C2)Nc1cccc2c(=O)n(-c3ccc(Oc4ccc(Br)cc4)nc3)ccc12 [ID 704]
> 76%	2.4 nM	–	COc1ccc(-n2ccc3c(NC(=O)CC45CC6CC(CC(C6)C4)C5)cccc3c2=O)cn1 [ID 705]
> 76%	58 nM	–	O=C(CC12CC3CC(CC(C3)C1)C2)Nc1cccc2c(=O)n(-c3cnc4ccccc4c3)ccc12 [ID 706]
> 76%	1.63 nM	–	O=C(CC12CC3CC(CC(C3)C1)C2)Nc1cccc2c(=O)n(-c3ccc(Sc4cc(Cl)ccc4Cl)nc3)ccc12 [ID 707]
> 76%	26.2 nM	–	Cc1ccc(Oc2ncccc2-n2ccc3c(NC(=O)CC45CC6CC(CC(C6)C4)C5)cccc3c2=O)c2c1CCC2 [ID 708]
> 76%	25.6 nM	–	O=C(CC12CC3CC(CC(C3)C1)C2)Nc1cccc2c(=O)n(-c3ccc(N4CCOCC4)nc3)ccc12 [ID 709]
> 76%	0.246 nM	–	COc1ncccc1-n1ccc2c(NC(=O)CC34CC5CC(CC(C5)C3)C4)cccc2c1=O [ID 710]
> 76%	0.723 nM	–	O=C(CC12CC3CC(CC(C3)C1)C2)Nc1cccc2c(=O)n(-c3ccc(Oc4ccccc4)nc3)ccc12 [ID 711]
> 76%	0.384 nM	–	O=C(CC12CC3CC(CC(C3)C1)C2)Nc1cccc2c(=O)n(-c3cccnc3N3CCOCC3)ccc12 [ID 712]
> 76%	10.7 nM	–	O=C(CC12CC3CC(CC(C3)C1)C2)Nc1cccc2c(=O)n(-c3ccc(Oc4c(Cl)cccc4Cl)nc3)ccc12 [ID 713]
> 76%	4.09 nM	–	O=C(CC12CC3CC(CC(C3)C1)C2)Nc1cccc2c(=O)n(-c3cccnc3Oc3ccccc3F)ccc12 [ID 714]
–	–	0 to 25%	Cc1ccc(C)c(CC(=O)Nc2cccc3c(=O)n(-c4cc(C)on4)ccc23)c1 [ID 716]
–	–	0 to 25%	CCOc1cccc(C(=O)Nc2cccc3c(=O)n(-c4cc(C)on4)ccc23)c1 [ID 717]
–	–	0 to 25%	Cc1cc(-n2ccc3c(NC(=O)CCc4ccccc4Cl)cccc3c2=O)no1 [ID 718]
–	–	0 to 25%	Cc1cc(-n2ccc3c(NC(=O)c4ccccc4Cl)cccc3c2=O)no1 [ID 719]
–	–	0 to 25%	Cc1cc(-n2ccc3c(NC(=O)c4ccccc4C)cccc3c2=O)no1 [ID 720]
–	–	0 to 25%	Cc1cc(-n2ccc3c(NC(=O)c4cccc(C)c4C)cccc3c2=O)no1 [ID 721]
–	–	26 to 50%	Cc1ccc(C)c(C(=O)Nc2cccc3c(=O)n(-c4cc(C)on4)ccc23)c1 [ID 722]
–	–	0 to 25%	Cc1cccc(C(=O)Nc2cccc3c(=O)n(-c4cc(C)on4)ccc23)c1 [ID 723]

inhibition at 0.3 µM	IC50	inhibition at 0.1 µM	SMILES
–	–	0 to 25%	COc1ccccc1CCC(=O)Nc1cccc2c(=O)n(-c3cc(C)on3)ccc12 [ID 724]
–	–	0 to 25%	COc1ccc(CCC(=O)Nc2cccc3c(=O)n(-c4cc(C)on4)ccc23)cc1 [ID 725]
–	–	0 to 25%	Cc1cc(-n2ccc3c(NC(=O)Cc4ccccc4F)cccc3c2=O)no1 [ID 726]
–	–	0 to 25%	COc1ccccc1CC(=O)Nc1cccc2c(=O)n(-c3cc(C)on3)ccc12 [ID 727]
–	–	0 to 25%	COc1ccc(OC)c(CC(=O)Nc2cccc3c(=O)n(-c4cc(C)on4)ccc23)c1 [ID 728]
–	–	0 to 25%	Cc1cc(-n2ccc3c(NC(=O)Cc4ccccc4C)cccc3c2=O)no1 [ID 729]
–	–	0 to 25%	COc1cccc(CC(=O)Nc2cccc3c(=O)n(-c4cc(C)on4)ccc23)c1 [ID 730]
–	–	0 to 25%	Cc1cccc(CC(=O)Nc2cccc3c(=O)n(-c4cc(C)on4)ccc23)c1 [ID 731]
–	–	0 to 25%	COc1ccc(CC(=O)Nc2cccc3c(=O)n(-c4cc(C)on4)ccc23)cc1 [ID 732]
–	–	0 to 25%	Cc1ccc(CC(=O)Nc2cccc3c(=O)n(-c4cc(C)on4)ccc23)cc1 [ID 733]
–	–	0 to 25%	Cc1cc(-n2ccc3c(NC(=O)c4cc5ccccc5o4)cccc3c2=O)no1 [ID 734]
–	–	> 76%	Cc1cc(-n2ccc3c(NC(=O)CC4CC5CCC4C5)cccc3c2=O)no1 (stereo not drawn) [ID 735]
–	–	0 to 25%	Cc1cc(-n2ccc3c(NC(=O)c4cccc5c4OCCO5)cccc3c2=O)no1 [ID 736]
–	–	0 to 25%	Cc1cc(C)cc(CC(=O)Nc2cccc3c(=O)n(-c4cc(C)on4)ccc23)c1 [ID 737]
–	–	0 to 25%	Cc1cc(-n2ccc3c(NC(=O)C4C[C@@H]5CC[C@H]4C5)cccc3c2=O)no1 (stereo partly drawn) [ID 738]
–	–	0 to 25%	COc1ccc(CC(=O)Nc2cccc3c(=O)n(-c4cc(C)on4)ccc23)c(OC)c1 [ID 739]
–	–	0 to 25%	Cc1cc(-n2ccc3c(NC(=O)c4ccc(F)c(C)c4)cccc3c2=O)no1 [ID 740]
–	–	0 to 25%	COc1ccc(CC(=O)Nc2cccc3c(=O)n(-c4cc(C)on4)ccc23)cc1C [ID 741]
–	–	0 to 25%	Cc1cccc(CCC(=O)Nc2cccc3c(=O)n(-c4cc(C)on4)ccc23)c1 [ID 742]
–	–	0 to 25%	Cc1cc(-n2ccc3c(NC(=O)c4cccc(C)c4Cl)cccc3c2=O)no1 [ID 743]
–	–	0 to 25%	COc1ccc(C(=O)Nc2cccc3c(=O)n(-c4cc(C)on4)ccc23)cc1C [ID 744]
–	–	0 to 25%	Cc1ccc(CCC(=O)Nc2cccc3c(=O)n(-c4cc(C)on4)ccc23)c(C)c1 [ID 745]

inhibition at 0.3 µM	IC50	inhibition at 0.1 µM	SMILES
–	–	51 to 75%	Cc1cc(-n2ccc3c(NC(=O)CCc4cccc(Cl)c4)cccc3c2=O)no1 [ID 746]
–	–	0 to 25%	Cc1cc(-n2ccc3c(NC(=O)c4ccc(CC(C)C)cc4)cccc3c2=O)no1 [ID 747]
–	–	0 to 25%	CCOC(=O)N1CCC(n2ccc3c(NC(=O)c4ccc(OCC)cc4O)cccc3c2=O)CC1 [ID 748]
–	–	0 to 25%	CCOC(=O)N1CCC(n2ccc3c(NC(=O)c4ccc(OC)cc4C)cccc3c2=O)CC1 [ID 749]
–	–	0 to 25%	CCOC(=O)N1CCC(n2ccc3c(NC(=O)[C@H]4CC[C@H](C)CC4)cccc3c2=O)CC1 [ID 750]
–	–	0 to 25%	CCOC(=O)N1CCC(n2ccc3c(NC(=O)CCc4ccccc4C)cccc3c2=O)CC1 [ID 751]
–	–	0 to 25%	CCOC(=O)N1CCC(n2ccc3c(NC(=O)c4ccc(-c5ccccc5)o4)cccc3c2=O)CC1 [ID 752]
–	–	0 to 25%	CCOC(=O)N1CCC(n2ccc3c(NC(=O)CCc4cccc(OC)c4)cccc3c2=O)CC1 [ID 753]
–	–	0 to 25%	CCOC(=O)N1CCC(n2ccc3c(NC(=O)Cc4c(C)cc(C)cc4C)cccc3c2=O)CC1 [ID 754]
–	–	0 to 25%	CCOC(=O)N1CCC(n2ccc3c(NC(=O)Cc4cc(C)ccc4C)cccc3c2=O)CC1 [ID 755]
–	–	0 to 25%	CCOC(=O)N1CCC(n2ccc3c(NC(=O)c4ccc(OC)c(Cl)c4)cccc3c2=O)CC1 [ID 756]
–	–	0 to 25%	CCOC(=O)N1CCC(n2ccc3c(NC(=O)c4cccc(OCC)c4)cccc3c2=O)CC1 [ID 757]
–	–	0 to 25%	CCOC(=O)N1CCC(n2ccc3c(NC(=O)CCc4ccccc4Cl)cccc3c2=O)CC1 [ID 758]
–	–	0 to 25%	CCOC(=O)N1CCC(n2ccc3c(NC(=O)CCc4ccc5c(c4)OCO5)cccc3c2=O)CC1 [ID 759]
–	–	0 to 25%	CCOC(=O)N1CCC(n2ccc3c(NC(=O)c4ccc(Cl)c(C)c4)cccc3c2=O)CC1 [ID 760]
–	–	0 to 25%	CCOC(=O)N1CCC(n2ccc3c(NC(=O)c4ccccc4Cl)cccc3c2=O)CC1 [ID 761]
–	–	0 to 25%	CCOC(=O)N1CCC(n2ccc3c(NC(=O)c4ccc(Cl)cc4Cl)cccc3c2=O)CC1 [ID 762]
–	–	0 to 25%	CCOC(=O)N1CCC(n2ccc3c(NC(=O)c4cc(Cl)ccc4Cl)cccc3c2=O)CC1 [ID 763]
–	–	0 to 25%	CCOC(=O)N1CCC(n2ccc3c(NC(=O)c4ccccc4C)cccc3c2=O)CC1 [ID 764]
–	–	0 to 25%	CCOC(=O)N1CCC(n2ccc3c(NC(=O)c4cccc(C)c4C)cccc3c2=O)CC1 [ID 765]
